From PubChem BioAssay (NCI)
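Grown in 96-well plates, cells were treated for 48 hours with each compound at five concentrations. Insufficient inhibition: endpoint recorded as highest concentration tested. TGI denotes the concentration required for complete inhibition of growth.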

Key:
Assay in all cases: DTP human tumour cell line panel, 48 h
A498 renal = test system: A498 renal
SF-295 CNS = test system: SF-295 CNS
SF-268 CNS = test system: SF-268 CNS
M14 melanoma = test system: M14 melanoma
EKVX NSCLC = test system: EKVX NSCLC
SN12C renal = test system: SN12C renal
RPMI-8226 leukemia = test system: RPMI-8226 leukemia
HS 578T breast = test system: HS 578T breast
PC-3 prostate = test system: PC-3 prostate
MCF7 breast = test system: MCF7 breast
HL-60(TB) leukemia = test system: HL-60(TB) leukemia
SK-MEL-2 melanoma = test system: SK-MEL-2 melanoma
CCRF-CEM leukemia = test system: CCRF-CEM leukemia
BT-549 breast = test system: BT-549 breast
HCT-116 colon = test system: HCT-116 colon
UACC-257 melanoma = test system: UACC-257 melanoma
TK-10 renal = test system: TK-10 renal
IGROV1 ovarian = test system: IGROV1 ovarian
COLO 205 colon = test system: COLO 205 colon
OVCAR-4 ovarian = test system: OVCAR-4 ovarian
A549 NSCLC = test system: A549 NSCLC
SK-MEL-28 melanoma = test system: SK-MEL-28 melanoma
OVCAR-3 ovarian = test system: OVCAR-3 ovarian
ACHN renal = test system: ACHN renal
U251 CNS = test system: U251 CNS
SW-620 colon = test system: SW-620 colon
KM12 colon = test system: KM12 colon
NCI-H460 lung = test system: NCI-H460 lung
HOP-92 NSCLC = test system: HOP-92 NSCLC
NCI-H522 lung = test system: NCI-H522 lung
LOX IMVI melanoma = test system: LOX IMVI melanoma
NCI-H23 lung = test system: NCI-H23 lung
MOLT-4 leukemia = test system: MOLT-4 leukemia
DU-145 prostate = test system: DU-145 prostate
HT29 colon = test system: HT29 colon
UO-31 renal = test system: UO-31 renal
HCC-2998 colon = test system: HCC-2998 colon
K-562 leukemia = test system: K-562 leukemia
NCI/ADR-RES ovarian = test system: NCI/ADR-RES ovarian
786-0 renal = test system: 786-0 renal
SNB-19 CNS = test system: SNB-19 CNS
SK-MEL-5 melanoma = test system: SK-MEL-5 melanoma
SF-539 CNS = test system: SF-539 CNS
UACC-62 melanoma = test system: UACC-62 melanoma
NCI-H226 lung = test system: NCI-H226 lung
MALME-3M melanoma = test system: MALME-3M melanoma
SK-OV-3 ovarian = test system: SK-OV-3 ovarian
T-47D breast = test system: T-47D breast
HOP-62 NSCLC = test system: HOP-62 NSCLC
CAKI-1 renal = test system: CAKI-1 renal
OVCAR-8 ovarian = test system: OVCAR-8 ovarian
SR leukemia = test system: SR leukemia
MDA-MB-231 breast = test system: MDA-MB-231 breast
HCT-15 colon = test system: HCT-15 colon
MDA-N = test system: MDA-N
RXF 393 renal = test system: RXF 393 renal
OVCAR-5 ovarian = test system: OVCAR-5 ovarian
MDA-MB-435 = test system: MDA-MB-435
SNB-75 CNS = test system: SNB-75 CNS

Cc1[nH]c(=O)nc2nc3ccc(Cl)cc3c(N(CCO)CCO)c12
TGI (A498 renal): > 100 µM
TGI (SF-295 CNS): > 100 µM
TGI (SF-268 CNS): > 100 µM
TGI (M14 melanoma): > 100 µM
TGI (EKVX NSCLC): > 100 µM
TGI (SN12C renal): > 100 µM
TGI (RPMI-8226 leukemia): > 100 µM
TGI (HS 578T breast): > 100 µM
TGI (PC-3 prostate): > 100 µM
TGI (MCF7 breast): > 100 µM
TGI (HL-60(TB) leukemia): > 100 µM
TGI (SK-MEL-2 melanoma): > 100 µM
TGI (CCRF-CEM leukemia): > 100 µM
TGI (BT-549 breast): > 100 µM
TGI (HCT-116 colon): > 100 µM
TGI (UACC-257 melanoma): > 100 µM
TGI (TK-10 renal): > 100 µM
TGI (IGROV1 ovarian): > 100 µM
TGI (COLO 205 colon): > 100 µM
TGI (OVCAR-4 ovarian): > 100 µM
TGI (A549 NSCLC): > 100 µM
TGI (SK-MEL-28 melanoma): > 100 µM
TGI (OVCAR-3 ovarian): > 100 µM
TGI (ACHN renal): > 100 µM
TGI (U251 CNS): > 100 µM
TGI (SW-620 colon): > 100 µM
TGI (KM12 colon): > 100 µM
TGI (NCI-H460 lung): > 100 µM
TGI (HOP-92 NSCLC): > 100 µM
TGI (NCI-H522 lung): 48 µM
TGI (LOX IMVI melanoma): > 100 µM
TGI (NCI-H23 lung): > 100 µM
TGI (MOLT-4 leukemia): > 100 µM
TGI (DU-145 prostate): > 100 µM
TGI (HT29 colon): > 100 µM
TGI (UO-31 renal): > 100 µM
TGI (HCC-2998 colon): > 100 µM
TGI (K-562 leukemia): > 100 µM
TGI (NCI/ADR-RES ovarian): > 100 µM
TGI (786-0 renal): > 100 µM
TGI (SNB-19 CNS): > 100 µM
TGI (SK-MEL-5 melanoma): > 100 µM
TGI (SF-539 CNS): > 100 µM
TGI (UACC-62 melanoma): > 100 µM
TGI (NCI-H226 lung): > 100 µM
TGI (MALME-3M melanoma): > 100 µM
TGI (SK-OV-3 ovarian): > 100 µM
TGI (T-47D breast): > 100 µM
TGI (HOP-62 NSCLC): > 100 µM
TGI (CAKI-1 renal): > 100 µM
TGI (OVCAR-8 ovarian): > 100 µM
TGI (SR leukemia): > 100 µM
TGI (MDA-MB-231 breast): > 100 µM
TGI (HCT-15 colon): > 100 µM
TGI (MDA-N): > 100 µM
TGI (RXF 393 renal): > 100 µM
TGI (OVCAR-5 ovarian): > 100 µM
TGI (MDA-MB-435): > 100 µM

Clc1ccccc1/C=C/c1ccnc2ccccc12
TGI (A498 renal): 33.1 µM
TGI (SF-295 CNS): 29.2 µM
TGI (SF-268 CNS): 40.2 µM
TGI (M14 melanoma): 32.1 µM
TGI (EKVX NSCLC): 17.9 µM
TGI (SN12C renal): 30.1 µM
TGI (RPMI-8226 leukemia): 36.3 µM
TGI (HS 578T breast): 53 µM
TGI (PC-3 prostate): 30.6 µM
TGI (MCF7 breast): 26.7 µM
TGI (HL-60(TB) leukemia): 45 µM
TGI (SK-MEL-2 melanoma): 34.2 µM
TGI (CCRF-CEM leukemia): 50.3 µM
TGI (BT-549 breast): 29 µM
TGI (HCT-116 colon): 29.1 µM
TGI (UACC-257 melanoma): 28.5 µM
TGI (TK-10 renal): 32.1 µM
TGI (IGROV1 ovarian): 32.7 µM
TGI (COLO 205 colon): 26.7 µM
TGI (OVCAR-4 ovarian): 31.3 µM
TGI (A549 NSCLC): 29.9 µM
TGI (SK-MEL-28 melanoma): 34.9 µM
TGI (OVCAR-3 ovarian): 28 µM
TGI (ACHN renal): 30.1 µM
TGI (U251 CNS): 31.4 µM
TGI (SW-620 colon): 35.6 µM
TGI (KM12 colon): 31.6 µM
TGI (NCI-H460 lung): 31.7 µM
TGI (HOP-92 NSCLC): 24.2 µM
TGI (NCI-H522 lung): 31.7 µM
TGI (LOX IMVI melanoma): 35.2 µM
TGI (NCI-H23 lung): 27.5 µM
TGI (DU-145 prostate): 29 µM
TGI (HT29 colon): 29.8 µM
TGI (UO-31 renal): 31 µM
TGI (HCC-2998 colon): 32.2 µM
TGI (K-562 leukemia): 38.6 µM
TGI (NCI/ADR-RES ovarian): 32.9 µM
TGI (786-0 renal): 29.2 µM
TGI (SNB-19 CNS): 31.3 µM
TGI (SK-MEL-5 melanoma): 28.4 µM
TGI (SF-539 CNS): 34.9 µM
TGI (UACC-62 melanoma): 29 µM
TGI (NCI-H226 lung): 33.3 µM
TGI (MALME-3M melanoma): 35.4 µM
TGI (SK-OV-3 ovarian): 32.8 µM
TGI (T-47D breast): 30.2 µM
TGI (HOP-62 NSCLC): 31.9 µM
TGI (CAKI-1 renal): 30.5 µM
TGI (OVCAR-8 ovarian): 36.3 µM
TGI (SR leukemia): 46.8 µM
TGI (MDA-MB-231 breast): 41.9 µM
TGI (HCT-15 colon): 28.1 µM
TGI (MDA-N): 27.7 µM
TGI (RXF 393 renal): 31 µM
TGI (OVCAR-5 ovarian): 34.5 µM
TGI (MDA-MB-435): 29.2 µM
TGI (SNB-75 CNS): 29 µM
